Source: US9777020B2, “Furo-3-carboxamide derivatives and methods of use” (AbbVie Inc., priority 2014, dated 2017)

Target: TrkA (Homo sapiens (Human), UniProt P04629)
Experiment: TrkA kinase HTRF enzyme inhibition assay
Assay type: biochemical
Details: TrkA pre-incubated with 200 μM ATP
In short: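 TrkA (2-10 nM) pre-activated 20 min with 200 μM ATP in HEPES pH 7.4/Mg/Mn buffer, compound added for 10 min, then biotinylated LCK-analog peptide (125 nM) for 1 h at ambient temperature. HTRF phosphotyrosine detection (665/620 ratio); duplicate half-log dilutions, IC50 from initial-rate inhibition via equation 1.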

TrkA, sequence (P04629 33-796): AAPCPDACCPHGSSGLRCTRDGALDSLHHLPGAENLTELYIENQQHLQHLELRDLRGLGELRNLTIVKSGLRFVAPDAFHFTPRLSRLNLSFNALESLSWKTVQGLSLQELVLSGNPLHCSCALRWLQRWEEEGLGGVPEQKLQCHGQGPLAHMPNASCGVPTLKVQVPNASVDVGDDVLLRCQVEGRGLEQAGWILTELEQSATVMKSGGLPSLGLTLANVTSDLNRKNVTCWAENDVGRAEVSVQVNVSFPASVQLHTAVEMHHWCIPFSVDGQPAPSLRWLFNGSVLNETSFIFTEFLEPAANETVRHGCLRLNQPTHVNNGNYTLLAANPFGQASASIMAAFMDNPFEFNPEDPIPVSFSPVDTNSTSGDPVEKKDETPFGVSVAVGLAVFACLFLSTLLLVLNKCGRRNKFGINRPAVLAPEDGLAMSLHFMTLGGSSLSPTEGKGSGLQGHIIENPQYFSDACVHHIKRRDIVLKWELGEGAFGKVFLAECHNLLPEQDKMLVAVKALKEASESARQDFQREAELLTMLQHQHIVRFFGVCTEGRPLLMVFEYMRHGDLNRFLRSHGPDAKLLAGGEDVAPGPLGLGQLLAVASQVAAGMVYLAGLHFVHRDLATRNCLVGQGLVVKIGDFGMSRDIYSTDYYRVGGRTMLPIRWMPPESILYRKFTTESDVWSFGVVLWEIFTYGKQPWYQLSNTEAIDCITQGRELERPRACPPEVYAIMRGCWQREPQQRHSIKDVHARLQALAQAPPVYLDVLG

| SMILES | IC50 [nM] |
| --- | --- |
| CCOc1nc(N2CCN(C(C)=O)CC2)ccc1NC(=O)c1coc2c1C(=O)N([C@@H](C)COC(C)=O)CC2 [Example 100, (2S)-2-[3-{[6-(4-acetylpiperazin-1-yl)-2-ethoxypyridin-3-yl]carbamoyl}-4-oxo-6,7-dihydrofuro[3,2-c]pyridin-5(4H)-yl]propyl acetate] | 23.5 |
| CC(=O)N1CCN(c2ccc(NC(=O)c3coc4c3C(=O)NCC4)c(O[C@H]3CCOC3)n2)CC1 [Example 105, N-{6-(4-acetylpiperazin-1-yl)-2-[(3S)-tetrahydrofuran-3-yloxy]pyridin-3-yl}-4-oxo-4,5,6,7-tetrahydrofuro[3,2-c]pyridine-3-carboxamide] | 23.5 |
| CCOc1nc(CC(=O)OC)ccc1NC(=O)c1coc2c1C(=O)NCC2 [Example 108, methyl(6-ethoxy-5-{[(4-oxo-4,5,6,7-tetrahydrofuro[3,2-c]pyridin-3-yl)carbonyl]amino}pyridin-2-yl)acetate] | 226 |
| CCOc1nc(CCO)ccc1NC(=O)c1coc2c1C(=O)NCC2 [Example 109, N-[2-ethoxy-6-(2-hydroxyethyl)pyridin-3-yl]-4-oxo-4,5,6,7-tetrahydrofuro[3,2-c]pyridine-3-carboxamide] | 225 |
| COc1nc(N2CCN(C(C)=O)CC2)ccc1NC(=O)c1coc2c1C(=O)CC1(CCOCC1)C2 [Example 110, N-[6-(4-acetylpiperazin-1-yl)-2-methoxypyridin-3-yl]-4-oxo-2′,3′,4,5′,6′,7-hexahydro-5H-spiro[1-benzofuran-6,4′-pyran]-3-carboxamide] | 39.2 |

The next compounds have a lower IC50 than those just listed; values first:

| IC50 [nM] | SMILES |
| --- | --- |
| 3.3 | CCOc1nc(N2CCN(C(C)=O)CC2)ccc1NC(=O)c1coc2c1C(=O)N([C@H](C)CO)CC2 [Example 99, N-[6-(4-acetylpiperazin-1-yl)-2-ethoxypyridin-3-yl]-5-[(2R)-1-hydroxypropan-2-yl]-4-oxo-4,5,6,7-tetrahydrofuro[3,2-c]pyridine-3-carboxamide] |
| 19.5 | CCOc1nc(N2CCN(C(C)=O)CC2)ccc1NC(=O)c1coc2c1C(=O)N([C@@H](C)CO)CC2 [Example 101, N-[6-(4-acetylpiperazin-1-yl)-2-ethoxypyridin-3-yl]-5-[(2S)-1-hydroxypropan-2-yl]-4-oxo-4,5,6,7-tetrahydrofuro[3,2-c]pyridine-3-carboxamide] |
| 12.7 | CCOc1nc(N2CCN(C(C)=O)CC2)ccc1NC(=O)c1coc2c1C(=O)N(C(C)(C)CO)CC2 [Example 102, N-[6-(4-acetylpiperazin-1-yl)-2-ethoxypyridin-3-yl]-5-(1-hydroxy-2-methylpropan-2-yl)-4-oxo-4,5,6,7-tetrahydrofuro[3,2-c]pyridine-3-carboxamide] |
| 16.9 | CCOc1nc(N2CCN(C(C)=O)CC2)ccc1NC(=O)c1coc2c1C(=O)N(CC(C)(C)OC(C)=O)CC2 [Example 103, 1-[3-{[6-(4-acetylpiperazin-1-yl)-2-ethoxypyridin-3-yl]carbamoyl}-4-oxo-6,7-dihydrofuro[3,2-c]pyridin-5(4H)-yl]-2-methylpropan-2-yl acetate] |
| 6 | CCOc1nc(N2CCN(C(C)=O)CC2)ccc1NC(=O)c1coc2c1C(=O)N(CC(C)(C)O)CC2 [Example 104, N-[6-(4-acetylpiperazin-1-yl)-2-ethoxypyridin-3-yl]-5-(2-hydroxy-2-methylpropyl)-4-oxo-4,5,6,7-tetrahydrofuro[3,2-c]pyridine-3-carboxamide] |
| 6.9 | CC(C)(O)COc1nc(N2CCOCC2)ccc1NC(=O)c1coc2c1C(=O)NCC2 [Example 107, N-[2-(2-hydroxy-2-methylpropoxy)-6-(morpholin-4-yl)pyridin-3-yl]-4-oxo-4,5,6,7-tetrahydrofuro[3,2-c]pyridine-3-carboxamide] |
| 3.9 | CCOc1nc(N2CCN(C(C)=O)CC2)ccc1NC(=O)c1coc2c1C(=O)NC1(CCC1)C2 [Example 111, N-[6-(4-acetylpiperazin-1-yl)-2-ethoxypyridin-3-yl]-4′-oxo-4′,7′-dihydro-5′H-spiro[cyclobutane-1,6′-furo[3,2-c]pyridine]-3′-carboxamide] |
